PubChem BioAssay AID256 (DTP/NCI, 2004)
Values joined by “and” are separate entries in the source; they are usually repeats but may differ in a detail not shown here. Equal values may be shown once. Toxic doses and inconclusive results are not listed.

Tested on: CD2F1 mice, L1210 leukemia ip, survival T/C
Assay: NCI In Vivo Anticancer Drug Screen. Data for tumor model L1210 Leukemia (intraperitoneal) in CD2F1 (CDF1) mice
Conditions: endpoint: mean survival time, higher = longer survival
Summary of the method: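 Read-out first: treated-group measurement over vehicle-control measurement, expressed as a ratio. Animals bore a transplanted tumor line and were dosed with compound or vehicle.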

[1] = dose: 100.0 mg/kg/injection, schedule: Q04DX003 (ip), vehicle: saline
[2] = dose: 200.0 mg/kg/injection, schedule: Q04DX003 (ip), vehicle: saline
[3] = dose: 50.0 mg/kg/injection, schedule: Q01DX009 (ip), vehicle: saline with Tween-80
[4] = dose: 100.0 mg/kg/injection, schedule: Q01DX009 (ip), vehicle: saline with Tween-80
[5] = dose: 200.0 mg/kg/injection, schedule: Q01DX009 (ip), vehicle: saline with Tween-80
[6] = dose: 100.0 mg/kg/injection, schedule: Q04DX003 (ip), vehicle: saline with Tween-80
[7] = dose: 200.0 mg/kg/injection, schedule: Q04DX003 (ip), vehicle: saline with Tween-80
[8] = dose: 400.0 mg/kg/injection, schedule: Q04DX003 (ip), vehicle: saline with Tween-80
[9] = dose: 25.0 mg/kg/injection, schedule: Q01DX009 (ip), vehicle: saline

Question: Which results are given for Cc1[nH]nc2c(=O)n(C)cnc12?
Answer: T/C (dose: 12.5 mg/kg/injection, schedule: Q01DX005 (ip), vehicle: water): 103 % of control; T/C (dose: 25.0 mg/kg/injection, schedule: Q01DX005 (ip), vehicle: water): 104 % of control; T/C (dose: 50.0 mg/kg/injection, schedule: Q01DX005 (ip), vehicle: water): 98 % of control; T/C (dose: 100.0 mg/kg/injection, schedule: Q01DX005 (ip), vehicle: water): 92 % of control; T/C (dose: 200.0 mg/kg/injection, schedule: Q01DX005 (ip), vehicle: water): 95 % of control

Question: How did the T/C (dose: 100.0 mg/kg/injection, schedule: Q01DX001 (ip), vehicle: saline) turn out when Cc1cc(C)c(Sc2c3ccccc3cc3ccccc23)c(C)c1 was run?
Answer: 91 % of control

Question: What about the T/C [1] of the same molecule?
Answer: 93 % of control

Question: And the T/C (dose: 200.0 mg/kg/injection, schedule: Q01DX001 (ip), vehicle: saline)?
Answer: 101 % of control

Question: And the T/C [2]?
Answer: 87 % of control

Question: What about the T/C (dose: 400.0 mg/kg/injection, schedule: Q01DX001 (ip), vehicle: saline) of the same molecule?
Answer: 100 % of control

Question: What about the T/C (dose: 400.0 mg/kg/injection, schedule: Q04DX003 (ip), vehicle: saline) of the same molecule?
Answer: 95 % of control

Question: Which results are given for O=S(OCC1COS(=O)O1)OCC1COS(=O)O1 (configuration not stated)?
Answer: T/C (dose: 100.0 mg/kg/injection, schedule: Q01DX001 (ip), vehicle: saline sonified): 106 % of control; T/C (dose: 200.0 mg/kg/injection, schedule: Q01DX001 (ip), vehicle: saline sonified): 97 % of control; T/C (dose: 400.0 mg/kg/injection, schedule: Q01DX001 (ip), vehicle: saline sonified): 104 % of control

Question: Which results are given for S=C([SH2+])[SH2+].S=C([SH2+])[SH2+].[Pt+2].c1ccc(C[P+](c2ccccc2)(c2ccccc2)c2ccccc2)cc1?
Answer: T/C (dose: 12.0 mg/kg/injection, schedule: Q04DX003 (ip), vehicle: saline): 87 % of control; T/C (dose: 25.0 mg/kg/injection, schedule: Q04DX003 (ip), vehicle: saline): 100 % of control; T/C (dose: 50.0 mg/kg/injection, schedule: Q04DX003 (ip), vehicle: saline): 94 % of control

Question: Which T/C [3] does the source give for CCCCC(C#N)(CCCC)C(=O)OCC here?
Answer: 101 % of control

Question: What about the T/C [4] of the same molecule?
Answer: 91 % of control

Question: What about the T/C [5] of the same molecule?
Answer: 97 % of control

Question: How did the T/C [3] turn out when CCc1ccc(CC)c(CC)c1CC was run?
Answer: 98 % of control

Question: What about the T/C [4] of the same molecule?
Answer: 95 % of control

Question: And the T/C [6]?
Answer: 98 % of control

Question: What about the T/C [5] of the same molecule?
Answer: 92 % of control

Question: And the T/C [7]?
Answer: 104 % of control

Question: Which T/C [4] does the source give for Cc1cc2nc(-c3ccccc3)c(-c3ccccc3)nc2cc1C here?
Answer: 92 % of control

Question: And the T/C [6]?
Answer: 94 % of control

Question: And the T/C [5]?
Answer: 92 % of control

Question: And the T/C [7]?
Answer: 91 % of control

Question: What about the T/C (dose: 400.0 mg/kg/injection, schedule: Q01DX009 (ip), vehicle: saline with Tween-80) of the same molecule?
Answer: 93 % of control

Question: What about the T/C [8] of the same molecule?
Answer: 95 % of control

Question: Which results are given for COc1cc2ccnc(/C=N\NC(N)=S)c2cc1OC?
Answer: T/C (dose: 25.0 mg/kg/injection, schedule: Q01DX009 (ip), vehicle: saline with Tween-80): 93 % of control; T/C [3]: 96 % of control; T/C [4]: 96 % of control; T/C [5]: 95 % of control

Question: With Nc1nc(SCC(=O)c2ccccc2)c2[nH]cnc2n1 as the molecule, how does the T/C (dose: 100.0 mg/kg/injection, schedule: Q04DX003 (ip), vehicle: saline sonified) read?
Answer: 113 % of control

Question: What about the T/C (dose: 176.0 mg/kg/injection, schedule: Q04DX003 (ip), vehicle: saline with Tween-80) of the same molecule?
Answer: 113 % of control

Question: And the T/C (dose: 200.0 mg/kg/injection, schedule: Q04DX003 (ip), vehicle: saline sonified)?
Answer: 107 % of control

Question: For C[N+](C)(CC(=O)Nc1ccc(Cl)c(Cl)c1)CC(=O)c1ccc(Cl)cc1, which T/C [9] is on record?
Answer: 87 % of control

Question: How did the T/C (dose: 2.5 mg/kg/injection, schedule: Q01DX009 (ip), vehicle: saline with Tween-80) turn out when [Cl][Pt+2][Cl].[NH-]c1ccc([N+](=O)[O-])cc1[NH-] was run?
Answer: 103 % of control

Question: And the T/C (dose: 5.0 mg/kg/injection, schedule: Q01DX009 (ip), vehicle: saline with Tween-80)?
Answer: 102 % of control

Question: And the T/C (dose: 10.0 mg/kg/injection, schedule: Q01DX009 (ip), vehicle: saline with Tween-80)?
Answer: 103 % of control

Question: What about the T/C (dose: 20.0 mg/kg/injection, schedule: Q01DX009 (ip), vehicle: saline with Tween-80) of the same molecule?
Answer: 105 % of control and 107 % of control

Question: And the T/C (dose: 40.0 mg/kg/injection, schedule: Q01DX009 (ip), vehicle: saline with Tween-80)?
Answer: 106 % of control and 111 % of control

Question: What about the T/C (dose: 80.0 mg/kg/injection, schedule: Q01DX009 (ip), vehicle: saline with Tween-80) of the same molecule?
Answer: 96 % of control

Question: Which T/C [6] does the source give for C=C1C(=O)OC2CC3(C)OC3CC/C(C)=C/C(OC(C)=O)C12 (configuration not stated) here?
Answer: 105 % of control

Question: And the T/C [7]?
Answer: 91 % of control

Question: Which T/C (dose: 0.03 mg/kg/injection, schedule: Q01DX009 (ip), vehicle: saline + alcohol) does the source give for CCCC(=O)O.CCCC(=O)O.CCCC(=O)O.CCCC(=O)O.[Rh].[Rh] here?
Answer: 100 % of control and 104 % of control

Question: What about the T/C (dose: 0.06 mg/kg/injection, schedule: Q01DX009 (ip), vehicle: saline + alcohol) of the same molecule?
Answer: 93 % of control and 104 % of control

Question: What about the T/C (dose: 0.12 mg/kg/injection, schedule: Q01DX009 (ip), vehicle: saline + alcohol) of the same molecule?
Answer: 96 % of control and 110 % of control

Question: What about the T/C (dose: 0.25 mg/kg/injection, schedule: Q01DX009 (ip), vehicle: saline + alcohol) of the same molecule?
Answer: 100 % of control and 104 % of control

Question: And the T/C (dose: 0.5 mg/kg/injection, schedule: Q01DX009 (ip), vehicle: saline + alcohol)?
Answer: 100 % of control and 112 % of control

Question: What about the T/C (dose: 1.0 mg/kg/injection, schedule: Q01DX009 (ip), vehicle: saline + alcohol) of the same molecule?
Answer: 102 % of control and 110 % of control

Question: How did the T/C [6] turn out when CCCCn1cnc2c(SSc3ncnc4c3ncn4CCCC)ncnc21 was run?
Answer: 116 % of control and 106 % of control

Question: What about the T/C [7] of the same molecule?
Answer: 113 % of control

Question: What about the T/C (dose: 264.0 mg/kg/injection, schedule: Q04DX003 (ip), vehicle: saline with Tween-80) of the same molecule?
Answer: 97 % of control

Question: What about the T/C (dose: 300.0 mg/kg/injection, schedule: Q04DX003 (ip), vehicle: saline with Tween-80) of the same molecule?
Answer: 120 % of control

Question: What about the T/C [8] of the same molecule?
Answer: 122 % of control and 111 % of control

Question: And the T/C (dose: 600.0 mg/kg/injection, schedule: Q04DX003 (ip), vehicle: saline with Tween-80)?
Answer: 97 % of control

Question: Cc1cn(C2CC3[O][Sn]([c]4ccccc4)([c]4ccccc4)[O]CC3O2)c(=O)[nH]c1=O (configuration not stated) was tested. Which T/C (dose: 0.75 mg/kg/injection, schedule: Q01DX005 (ip), vehicle: other) did it give?
Answer: 90 % of control

Question: And the T/C (dose: 0.78 mg/kg/injection, schedule: Q01DX005 (ip), vehicle: other)?
Answer: 96 % of control and 100 % of control

Question: And the T/C (dose: 1.5 mg/kg/injection, schedule: Q01DX005 (ip), vehicle: other)?
Answer: 90 % of control

Question: And the T/C (dose: 1.5 mg/kg/injection, schedule: Q01DX005 (ip), vehicle: saline)?
Answer: 89 % of control

Question: What about the T/C (dose: 3.0 mg/kg/injection, schedule: Q01DX005 (ip), vehicle: other) of the same molecule?
Answer: 95 % of control

Question: And the T/C (dose: 3.0 mg/kg/injection, schedule: Q01DX005 (ip), vehicle: saline)?
Answer: 89 % of control

Question: What about the T/C (dose: 6.0 mg/kg/injection, schedule: Q01DX005 (ip), vehicle: saline) of the same molecule?
Answer: 97 % of control

Question: What about the T/C (dose: 6.25 mg/kg/injection, schedule: Q01DX005 (ip), vehicle: other) of the same molecule?
Answer: 203 % of control and 102 % of control and 105 % of control

Question: What about the T/C (dose: 6.25 mg/kg/injection, schedule: Q01DX009 (ip), vehicle: saline) of the same molecule?
Answer: 109 % of control

Question: What about the T/C (dose: 12.0 mg/kg/injection, schedule: Q01DX005 (ip), vehicle: other) of the same molecule?
Answer: 100 % of control

Question: What about the T/C (dose: 12.0 mg/kg/injection, schedule: Q01DX005 (ip), vehicle: saline) of the same molecule?
Answer: 104 % of control

Question: What about the T/C (dose: 12.5 mg/kg/injection, schedule: Q01DX009 (ip), vehicle: saline) of the same molecule?
Answer: 107 % of control

Question: And the T/C (dose: 24.0 mg/kg/injection, schedule: Q01DX005 (ip), vehicle: other)?
Answer: 104 % of control

Question: And the T/C (dose: 24.0 mg/kg/injection, schedule: Q01DX005 (ip), vehicle: saline)?
Answer: 103 % of control

Question: What about the T/C [9] of the same molecule?
Answer: 113 % of control

Question: What about the T/C (dose: 50.0 mg/kg/injection, schedule: Q01DX009 (ip), vehicle: saline) of the same molecule?
Answer: 110 % of control

Question: What about the T/C (dose: 100.0 mg/kg/injection, schedule: Q01DX009 (ip), vehicle: saline) of the same molecule?
Answer: 103 % of control

Question: What about the T/C (dose: 200.0 mg/kg/injection, schedule: Q01DX009 (ip), vehicle: saline) of the same molecule?
Answer: 115 % of control

Question: Which results are given for O=C1C=CC(=O)C=C1 (tested in a mixture with another compound)?
Answer: T/C (dose: 1.0 mg/kg/injection, schedule: Q01DX009 (ip), vehicle: saline sonified): 98 % of control; T/C (dose: 1.0 mg/kg/injection, schedule: Q04DX003 (ip), vehicle: saline with Tween-80): 97 % of control; T/C (dose: 2.0 mg/kg/injection, schedule: Q01DX009 (ip), vehicle: saline sonified): 94 % of control; T/C (dose: 2.0 mg/kg/injection, schedule: Q04DX003 (ip), vehicle: saline with Tween-80): 95 % of control; T/C (dose: 3.0 mg/kg/injection, schedule: Q01DX009 (ip), vehicle: saline sonified): 98 % of control; T/C (dose: 3.0 mg/kg/injection, schedule: Q04DX003 (ip), vehicle: saline with Tween-80): 95 % of control; T/C (dose: 6.0 mg/kg/injection, schedule: Q01DX009 (ip), vehicle: saline sonified): 90 % of control; T/C (dose: 6.0 mg/kg/injection, schedule: Q04DX003 (ip), vehicle: saline with Tween-80): 97 % of control

Question: For CCC(C)C(=O)CN(C)C (configuration not stated), which T/C [1] is on record?
Answer: 100 % of control

Question: And the T/C [2]?
Answer: 96 % of control
